Measurements taken from patent publication US5866576A, “Epoxide-containing compounds” (Cell Therapeutics, Inc., priority 1997, dated 1999).
Where two headings read alike, the source gives them in different places. Blank lines part the entries; values can stand above or below the compound they belong to.

What was measured:
lymphocytes = assay: mixed lymphocyte reaction (MLR), human lymphocytes (FIG. 12); assay type: cell-based
Method: This example illustrates an inhibitive effect of compound no. 1206 in a mixed lymphocyte reaction (MLR). This MNR is used to screen potentially immunosuppressive drugs. Lymphocytes (2×10^5) from normal human donors are grown for 6 days in the presence and absence (control) of inventive compound no. 1206. Tritiated thymidine is added and the lymphocytes grown for a final 6 hours. Incorporation of the tritiated thymidine occurs when the cells are in cell cycle. […] An experimentally determined IC50 value for compound no. 1206 is 70 μM.

thymocytes = assay: IL-2 (ConA co-stimulated) induced proliferation of thymocytes; assay type: cell-based, mice; conditions: Mus musculus, Thymocyte, 96 h; Table II; ConA 0.25 ug/ml / IL2 20 ng/ml, 4 days
Method: This example illustrates the effects of inventive compounds nos. 1105, 1114, 1413, 1439, 1594, 2518, 2548R, 2548S, 2562 and 3503 as effective inhibitors of IL-2 induced proliferation of thymocytes. Single cell suspensions of thymus gland cells obtained from 4-6 week old mice were prepared. Two-hundred thousand cells were plated into individual wells of flat-bottom 96-well plates in RPMI-1640-10% FCS medium. The invention compounds were then added to the wells at varying concentrations and the cells incubated for 1-2 hours at 37° C.
Following this pre-incubation a mixture of Concanavalin A (ConA) and Interleukin-2 (IL2) was added to the experimental wells at a final concentration of (0.25 ug/ml ConA)/(20 ng/ml IL2). Appropriate positive and negative controls were set up on each plate. Each variable was set up in quadruplicate.
The plates were incubated for 4 days at 37° C. in a humidified CO2 incubator. On day 4 the wells were pulsed with 1 μCi of tritiated thymidine(3H-TdR) and the plates incubated for an additional 4 hours. The plates were then harvested and the incorporation of 3H-TdR was determined in a liquid scintillation counter. From the CPM obtained from each experimental well an IC-50 for each inventive compound tested was determined. Therefore, a lower reported IC-50 value is indicative of greater inhibition of IL-2-induced proliferation of thymocytes. Table II illustrates IC-50 values (in μM) for inventive compounds inhibiting proliferation at very low concentrations of compound.

[1] = system: LPS-induced TNF release in whole human blood; assay: LPS-induced TNF release in whole human blood (FIG. 14); assay type: cell-based; conditions: LPS 10 ng/ml, read-out: inhibition of TNF-α induction
Method: This example illustrates inhibitive effects of the inventive compounds on LPS-induced TNF release. Data collected is reported as percent inhibition of LPS induced TNF release in whole human blood as compared with control values of TNF release.
In this assay, whole blood was collected from a healthy human donor into Vacutainer tubes containing ACD citrate anti-coagulant. Compounds to be tested were diluted in RPMI medium and added (5 μl) to tubes containing whole blood (225 μl). The tubes were mixed and incubated for a maximum of 1 hour at 37° C. LPS Salmonella abortus equi was diluted in RPMI and added to samples at 20 μl per tube (10 ng/ml final concentration). The prepared tubes were mixed and incubated for 4-6 hours at 37° C. The reaction was terminated by adding 750 μl of RPMI to each tube, then centrifuged to remove cells. Supernatants are collected and stored overnight at 4° C. Supernatant samples are assayed for TNF release using commercial immunoassay kits.

[2] = system: normal human bone marrow stromal cells (MSC); assay: human bone marrow stromal cell (MSC) proliferation in response to PDGF BB and IL-1α; assay type: cell-based; conditions: Table III, PDGF BB 50 ng/ml and IL-1α 10 ng/ml
Method: This example illustrates the effects of inventive compounds nos. 1114, 1413, 1560, 1565, 1594, 2518, 2548R, 2548S and 3503 as effective inhibitors of normal human bone marrow stromal cells (MSC) proliferation in response to Platelet Derived Growth Factor BB (PDGF B) and IL-1α (50 and 10 ng/ml, respectively).
MSC were obtained and malintained in exponential growth, released from a growth plate with trypsin and plated into 96 well tissue culture plates in the presence of Fibroblast Growth Factor (FGFβ) for 48 hours. Growth media were removed and the cells were washed once with serum free media. The cells were then incubated 20-24 hours in serum free media.
After incubation, inventive compounds were added to the cells at the appropriate concentration and then the cells again incubated for 1 hour. PDGF B and IL-1α were added to the cells along with 3H-thymidine and the cells again incubated for an additional 24 hours.
After 24 hours of incubation, the cells were then harvested to assess incorporation of ^3 H-thymidine into DNA (proliferation). From each harvested cell culture, an IC-50 for each inventive compound tested was determined. Therefore, a lower reported IC-50 value is indicatilve of greater activity of the invention compounds in inhibiting MSC proliferation. Table III illustrates IC-50 values (in μM) for invention compounds inhibiting MSC proliferation at very low concentrations of compound.

[3] = system: polymorphonuclear leukocytes; conditions: cited from earlier work; for chemotaxis in polymorphonuclear leukocytes: in response to a stimulator of chemotaxis
cerebral blood flow = conditions: in vivo; cited from earlier work
[4] = system: tumor necrosis factor (TNF) levels; conditions: cited from earlier work
[5] = system: PAPH (phosphatidic acid phosphohydrolase); assay: blocking of PAPH in a specific activation pathway; assay type: cell-based; conditions: pathway not involving PI; human mesangial cells, TNF
Excerpt: The compounds of the invention, include inhibitors of subspecies of LPAAT in PAPH enzymes with substrate specificity for intermediates with 1,2-diunsaturated and 1-alkyl, 2-unsaturated subspecies. One representative example of such an inhibitor (although not within the genus of inventive compounds) is PTX. […] It should be emphasized that the compounds of the invention affect that subset of PAPH and LPAAT that relates to substrates with unsaturated fatty acids other than arachidonate in the sn-2 position, not the housekeeping forms of these enzymes that serve the PI pathway.

IC50 (lymphocytes): 70 µM
Structure (SMILES): Cn1c(=O)c2ccccc2n(CCCCC2CO2)c1=O (centres unmarked) [Compound 1206, 1-(5,6-Oxidohexyl)-3-methylbenzoyleneurea]

Structure (SMILES): Cn1cnc2c1c(=O)n(CCCCCCCCCCC1CO1)c(=O)n2C (centres unmarked) [Compound 2518, 1-(11,12-Oxidodecyl)-3,7-dimethylxanthine]
IC50 (thymocytes): 3.4 µM | inhibition at 50 µM [1]: 35% | IC50 [2]: 16.7 µM

Structure (SMILES): CC(O)CCCCn1c(=O)c2c(ncn2C)n(C)c1=O (centres unmarked) [Compound M1, 1-(5-hydroxyhexyl)-3,7-dimethylxanthine]
chemotaxis in polymorphonuclear leukocytes [3]: stimulate chemotaxis in polymorphonuclear leukocytes | cerebral blood flow (cerebral blood flow): increasing cerebral blood flow

Structure (SMILES): CC(=O)CCCCn1c(=O)c2c(ncn2C)n(C)c1=O [PTX, 1-(5-oxohexyl)-3,7-dimethylxanthine]
TNF levels ([4]; normal volunteers): TNF levels were higher among PTX recipients | TNF levels ([4]; with GM-CSF, patients undergoing allogeneic bone marrow transplant): decrease tumor necrosis factor (TNF) levels | activity of certain cytokines to affect chemotaxis [3]: inhibit activity of certain cytokines to affect chemotaxis | chemotaxis in polymorphonuclear leukocytes [3]: stimulate chemotaxis in polymorphonuclear leukocytes | blocking of PAPH [5]: blocks PAPH in a specific activation pathway
